Laboratory results from ChEMBL document CHEMBL1130041, “Halogenated 4-(phenoxymethyl)piperidines as potential radiolabeled probes for sigma-1 receptors: in vivo evaluation of [123I]-1-(iodopropen-2-yl)-4-[(4-cyanophenoxy)methyl]pip eri dine” (J Med Chem, 1997).

Tests used:
[1] = species on record: Rattus norvegicus; assay: Biodistribution of [123I]-label in rat liver was reported at 4 hr post injection. Value shown is %ID/g of tissue; assay type: ADME, organism-based; conditions: in vivo
[2] = species on record: Rattus norvegicus; assay: Biodistribution of [123I]-label in rat lung was reported at 0.33 hr post injection. Value shown is %ID/g of tissue; assay type: ADME, organism-based; conditions: in vivo
[3] = species on record: Rattus norvegicus; assay: Biodistribution of [123I]-label in rat brain was reported at 0.33 hr post injection. Value shown is %ID/g of tissue; assay type: ADME, organism-based; conditions: in vivo
[4] = species on record: Rattus norvegicus; assay: Biodistribution of [123I]-label in rat brain was reported at 1 hr post injection. Value shown is %ID/g of tissue; assay type: ADME, organism-based; conditions: in vivo
[5] = species on record: Rattus norvegicus; assay: Biodistribution of [123I]-label in rat brain was reported at 4 hr post injection. Value shown is %ID/g of tissue; assay type: ADME, organism-based; conditions: in vivo
[6] = species on record: Rattus norvegicus; assay: Biodistribution of [123I]-label in rat heart was reported at 2 hr post injection. Value shown is %ID/g of tissue; assay type: ADME, organism-based; conditions: in vivo
[7] = species on record: Rattus norvegicus; assay: Biodistribution of [123I]-label in rat lung was reported at 1 hr post injection. Value shown is %ID/g of tissue; assay type: ADME, organism-based; conditions: in vivo
[8] = species on record: Rattus norvegicus; assay: Biodistribution of [123I]-label in rat spleen was reported at 0.33 hr post injection. Value shown is %ID/g of tissue; assay type: ADME, organism-based; conditions: in vivo
[9] = species on record: Rattus norvegicus; assay: Biodistribution of [123I]-label in rat spleen was reported at 1 hr post injection. Value shown is %ID/g of tissue; assay type: ADME, organism-based; conditions: in vivo
[10] = species on record: Rattus norvegicus; assay: Biodistribution of [123I]-label in rat stomach was reported at 2 hr post injection. Value shown is %ID/g of tissue; assay type: ADME, organism-based; conditions: in vivo
[11] = species on record: Rattus norvegicus; assay: Distribution of [123I]-label in rat brain (cerebellum) was reported at 60 min post injection. Value shown is %ID/g of tissue; assay type: ADME, organism-based; conditions: in vivo, 1 h
[12] = species on record: Rattus norvegicus; assay: Distribution of [123I]-label in rat brain (frontal cortex) was reported at 20 min post injection. Value shown is %ID/g of tissue; assay type: ADME, organism-based; conditions: in vivo
[13] = species on record: Rattus norvegicus; assay: Distribution of [123I]-label in rat brain (hippocampus) was reported at 20 min post injection. Value shown is %ID/g of tissue; assay type: ADME, organism-based; conditions: in vivo
[14] = species on record: Rattus norvegicus; assay: Distribution of [123I]-label in rat brain (hippocampus) was reported at 60 min post injection. Value shown is %ID/g of tissue; assay type: ADME, organism-based; conditions: in vivo, 1 h
[15] = species on record: Rattus norvegicus; assay: Distribution of [123I]-label in rat brain (medulla pons) was reported at 20 min post injection. Value shown is %ID/g of tissue; assay type: ADME, organism-based; conditions: in vivo
[16] = species on record: Rattus norvegicus; assay: Distribution of [123I]-label in rat brain (midbrain) was reported at 20 min post injection. Value shown is %ID/g of tissue; assay type: ADME, organism-based; conditions: in vivo
[17] = species on record: Rattus norvegicus; assay: Distribution of [123I]-label in rat brain (striatum) was reported at 60 min post injection. Value shown is %ID/g of tissue; assay type: ADME, organism-based; conditions: in vivo, 1 h
[18] = species on record: Rattus norvegicus; assay: Biodistribution of [123I]-label in rat heart was reported at 4 hr post injection. Value shown is %ID/g of tissue; assay type: ADME, organism-based; conditions: in vivo
[19] = species on record: Rattus norvegicus; assay: Biodistribution of [123I]-label in rat intestine was reported at 0.33 hr post injection. Value shown is %ID/g of tissue; assay type: ADME, organism-based; conditions: in vivo
[20] = species on record: Rattus norvegicus; assay: Biodistribution of [123I]-label in rat intestine was reported at 2 hr post injection. Value shown is %ID/g of tissue; assay type: ADME, organism-based; conditions: in vivo
[21] = species on record: Rattus norvegicus; assay: Biodistribution of [123I]-label in rat intestine was reported at 24 hr post injection. Value shown is %ID/g of tissue; assay type: ADME, organism-based; conditions: in vivo
[22] = species on record: Rattus norvegicus; assay: Biodistribution of [123I]-label in rat kidneys was reported at 1 h post injection. Value shown is %ID/g of tissue; assay type: ADME, organism-based, Kidney; conditions: in vivo
[23] = species on record: Rattus norvegicus; assay: Biodistribution of [123I]-label in rat liver was reported at 1 hr post injection. Value shown is %ID/g of tissue; assay type: ADME, organism-based; conditions: in vivo
[24] = species on record: Rattus norvegicus; assay: Biodistribution of [123I]-label in rat liver was reported at 2 hr post injection. Value shown is %ID/g of tissue; assay type: ADME, organism-based; conditions: in vivo
[25] = species on record: Rattus norvegicus; assay: Biodistribution of [123I]-label in rat lung was reported at 24 hr post injection. Value shown is %ID/g of tissue; assay type: ADME, organism-based; conditions: in vivo
[26] = species on record: Rattus norvegicus; assay: Biodistribution of [123I]-label in rat lung was reported at 4 hr post injection. Value shown is %ID/g of tissue; assay type: ADME, organism-based; conditions: in vivo
[27] = species on record: Rattus norvegicus; assay: Biodistribution of [123I]-label in rat muscle was reported at 1 hr post injection. Value shown is %ID/g of tissue; assay type: ADME, organism-based; conditions: in vivo
[28] = species on record: Rattus norvegicus; assay: Biodistribution of [123I]-label in rat muscle was reported at 24 hr post injection. Value shown is %ID/g of tissue; assay type: ADME, organism-based; conditions: in vivo
[29] = species on record: Rattus norvegicus; assay: Biodistribution of [123I]-label in rat brain was reported at 2 hr post injection. Value shown is %ID/organ; assay type: ADME, organism-based; conditions: in vivo
[30] = species on record: Rattus norvegicus; assay: Biodistribution of [123I]-label in rat thyroid was reported at 1 hr post injection. Value shown is %ID/organ; assay type: ADME, organism-based, Thyroid gland; conditions: in vivo
[31] = species on record: Rattus norvegicus; assay: Biodistribution of [123I]-label in rat thyroid was reported at 2 hr post injection. Value shown is %ID/organ; assay type: ADME, organism-based, Thyroid gland; conditions: in vivo
[32] = molecular target: D(2) dopamine receptor (Homo sapiens, UniProt P14416); assay: In vitro binding affinity for Dopamine receptor D2
D(2) dopamine receptor, sequence (P14416 whole entry): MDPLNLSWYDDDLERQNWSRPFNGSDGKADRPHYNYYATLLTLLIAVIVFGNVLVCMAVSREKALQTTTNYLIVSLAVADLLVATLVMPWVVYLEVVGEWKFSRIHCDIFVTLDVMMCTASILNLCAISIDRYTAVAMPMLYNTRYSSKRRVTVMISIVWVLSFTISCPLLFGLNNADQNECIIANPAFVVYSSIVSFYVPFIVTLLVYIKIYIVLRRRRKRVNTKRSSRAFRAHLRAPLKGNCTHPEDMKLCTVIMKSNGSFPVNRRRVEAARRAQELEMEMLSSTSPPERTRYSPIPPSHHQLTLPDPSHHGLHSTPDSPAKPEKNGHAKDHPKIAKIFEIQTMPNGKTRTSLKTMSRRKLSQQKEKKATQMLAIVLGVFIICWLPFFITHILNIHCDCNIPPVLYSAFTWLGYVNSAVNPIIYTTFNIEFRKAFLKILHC

[33] = molecular target: Sigma non-opioid intracellular receptor 1 (Homo sapiens, UniProt Q99720); assay: 50% inhibitory dose against sigma receptor; assay type: functional
Sigma non-opioid intracellular receptor 1, sequence (Q99720 whole entry): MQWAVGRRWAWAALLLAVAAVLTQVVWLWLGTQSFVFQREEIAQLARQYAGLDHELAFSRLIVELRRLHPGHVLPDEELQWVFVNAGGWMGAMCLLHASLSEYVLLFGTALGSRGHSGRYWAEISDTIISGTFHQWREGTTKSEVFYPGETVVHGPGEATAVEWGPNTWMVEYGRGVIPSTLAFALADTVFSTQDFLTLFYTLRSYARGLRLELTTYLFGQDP

[34] = molecular target: Sigma 2 receptor; assay: Receptor binding affinity against Sigma-2 receptor from guinea pig membranes; parameters: species or system Cavia porcellus
[35] = species on record: Rattus norvegicus; assay: Distribution of [123I]-label in rat brain (midbrain) was reported at 60 min post injection. Value shown is %ID/g of tissue; assay type: ADME, organism-based; conditions: in vivo, 1 h

ID/g [1]: 0.5%
ID/g [2]: 6.59%
ID/g [3]: 1.06%
ID/g [4]: 1.09%
ID/g [5]: 1.07%
ID/g [6]: 0.81%
ID/g [7]: 6.35%
ID/g [8]: 0.91%
ID/g [9]: 0.92%
ID/g [10]: 0.3%
ID/g [11]: 1.09%
ID/g [12]: 1.28%
ID/g [13]: 1.02%
ID/g [14]: 1.06%
ID/g [15]: 0.95%
ID/g [16]: 1.06%
ID/g [17]: 1.13%
ID/g [18]: 0.67%
ID/g [19]: 0.54%
ID/g [20]: 0.84%
ID/g [21]: 0.74%
ID/g [22]: 1.64%
ID/g [23]: 0.45%
ID/g [24]: 0.43%
ID/g [25]: 0.79%
ID/g [26]: 3.14%
ID/g [27]: 0.29%
ID/g [28]: 0.09%
ID [29]: 2.01%
ID [30]: 0.3%
ID [31]: 0.27%
Ki [32]: > 10000 nM
ID50 [33]: 0.01 mg/kg
Ki [34]: 38.8 nM
ID/g [35]: 1.17%
Compound: N#Cc1ccc(OCC2CCN(C/C=C/I)CC2)cc1
